# Experimental data: patent US20250325531A1, “TREATMENT OF SYSTOLIC DYSFUNCTION” (MyoKardia, Inc., priority 2024, published 2025)
# System: healthy subjects
# Assay: Transthoracic echocardiography (TTE) pharmacodynamics after single ascending doses in healthy volunteers
# Assay type: in vivo, human
# Conditions: for SET, mean (SD) increase from Baseline: 1.5 to 2 hours postdose
# Protocol: To assess pharmacodynamic effects, serial echocardiograms were performed. The sonographers used in the study completed Echo protocol training and submitted an example of a study for evaluation to the core laboratory for evaluation. The core TTE lab certified that the sonographer was able to perform the TTEs at a level satisfactory for obtaining the required protocol data.
# These criteria were chosen to prevent subjects from having prolongation of SET that might lead to myocardial ischemia. Dose escalation stopping criteria also included observation of a Baseline-corrected, group mean relative increase of >20% in any 2 sequential TTE assessments in at least 2 measures of LV contractility: LVOT-VTI, LVFS, LVEF, or LVSV in subjects receiving Compound I. Placebo-controlled evaluation may have been considered. For this comparison, subjects who received placebo may have been pooled across cohorts.
# PK and PD data were collected as described herein. […] Changes from Baseline at each postbaseline timepoint were assessed.
# SET as determined by TTE was assessed using summary statistics. Observations and change from Baseline were summarized by treatment at each time point and the maximum change from Baseline determined for each subject. In addition, categorical analyses were performed on the number of subjects with a change from Baseline >50 msec and the number of subjects with a change from Baseline >75 msec in 1 or any 2 sequential TTE assessments. The relationship to Compound I plasma concentration to SET was explored. An analysis of SET placebo-adjusted change from Baseline was also performed.
# As the Cmax occurred at between 4 and 6 hours in most of the subjects, the TTE obtained at 6 hours postdose was considered the best timepoint to explore the relationship between concentration and pharmacological effect. TTEs obtained at 1.5 and 3 hours after dosing were before the Cmax and at 9 hours were after the peak Cmax. Based on the preclinical data, it was considered unlikely that there would be a prolonged lag between the Cmax and peak pharmacological effect. As the exposure after the administration of the 350 mg and 525 mg doses were very similar, it was decided to not only present the results from these groups separately, but also to combine the data from these groups. By combining the data from the 2 groups, the number of subjects dosed was increased from 6 to 12, thus increasing the power to observe a statistically significant change from Baseline in the TTE parameters of interest.
# [1] = 6 hours postdose, plasma concentration bin 0-1000 ng/mL (n = 29)
# [2] = 6 hours postdose, plasma concentration bin 1001-2000 ng/mL (n = 9)
# [3] = 6 hours postdose, plasma concentration bin >2000 ng/mL (n = 10)
# [4] = plasma concentrations >2000 ng/ml, 6 hours postdose
structure (smiles),measurement,setting,value
"Cn1cc(S(=O)(=O)[C@@](C)(F)C2CCN(C(=O)Nc3ccon3)CC2)c(C(F)F)n1 [Compound I, (R)-4-(1-((3-(difluoromethyl)-1-methyl-1H-pyrazol-4-yl)sulfonyl)-1-fluoroethyl)-N-(isoxazol-3-yl) piperidine-1-carboxamide]","SET, mean (SD) increase from Baseline",350 mg and 525 mg combined,18.0 (19.5) msec
same,"SET, mean (SD) increase from Baseline",350 mg,19.2 (20.5) msec
same,"DBP, placebo-corrected LS mean difference of change from Baseline",[1],2.277 mm Hg
same,"E/A ratio, placebo-corrected LS mean difference of change from Baseline",[1],0.150
same,"HR, placebo-corrected LS mean difference of change from Baseline",[1],−1.070 bpm
same,"LVEDD, placebo-corrected LS mean difference of change from Baseline",[1],−0.014 cm
same,"LVESD, placebo-corrected LS mean difference of change from Baseline",[1],0.025 cm
same,"LVFS, placebo-corrected LS mean difference of change from Baseline",[1],−0.560%
same,"MPI, placebo-corrected LS mean difference of change from Baseline",[1],−0.007
same,"SBP, placebo-corrected LS mean difference of change from Baseline",[1],−0.623 mm Hg
same,"DBP, placebo-corrected LS mean difference of change from Baseline",[2],2.937 mm Hg
same,"HR, placebo-corrected LS mean difference of change from Baseline",[2],0.336 bpm
same,"LVEDD, placebo-corrected LS mean difference of change from Baseline",[2],−0.041 cm
same,"LVEDV, placebo-corrected LS mean difference of change from Baseline",[2],-6.100 mL
same,"MPI, placebo-corrected LS mean difference of change from Baseline",[2],−0.021
same,"SBP, placebo-corrected LS mean difference of change from Baseline",[2],1.132 mm Hg
same,"DBP, placebo-corrected LS mean difference of change from Baseline",[3],1.540 mm Hg
same,"E/A ratio, placebo-corrected LS mean difference of change from Baseline",[3],−0.047
same,"E/e′(lateral), placebo-corrected LS mean difference of change from Baseline",[3],−0.063
same,"HR, placebo-corrected LS mean difference of change from Baseline",[3],2.871 bpm
same,"MPI, placebo-corrected LS mean difference of change from Baseline",[3],0.033
same,"SBP, placebo-corrected LS mean difference of change from Baseline",[3],−1.572 mm Hg
same,plasma concentrations at which PD effects were discernable,echocardiographic measures,≥ 1000 ng/mL
same,"IVRT (mitral inflow doppler), placebo-corrected LS mean difference",[4],12.0 ms
same,"stroke volume, placebo-corrected LS mean difference±SE",[4],8.20 ± 3.99 mL
